In patent US20260125382A1, “COMPOUNDS FOR INHIBITING OR DEGRADING CDK2 AND/OR CDK9 AND MEDICINAL USE THEREOF” (KOREA RESEARCH INSTITUTE OF CHEMICAL TECHNOLOGY, priority 2022, published 2026):

Experiments:
[1] = biological target: T1, CDK2 (Homo sapiens, UniProt P24941); assay: CDK protein degradation activity (Western blotting), CDK2; type: cell-based; conditions: MDA-MB-231 cells, 16 hours, Western blot
T1 construct: endogenous in cells; host or cells: MDA-MB-231
Summary of the method: (§1)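 MDA-MB-231 cells were treated with compound at final concentrations of 100 nM, 1 μM and 10 μM, or DMSO vehicle, for 16 h. Lysates were resolved by SDS-PAGE and immunoblotted for CDK2, CDK9 and tubulin, with band intensities quantified densitometrically.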

[2] = biological target: T2, CDK9 (Homo sapiens, UniProt P50750); assay: CDK protein degradation activity (Western blotting), CDK9; type: cell-based; conditions: MDA-MB-231 cells, 16 hours, Western blot
T2 construct: endogenous in cells; host or cells: MDA-MB-231
T2 sequence (P50750 whole entry): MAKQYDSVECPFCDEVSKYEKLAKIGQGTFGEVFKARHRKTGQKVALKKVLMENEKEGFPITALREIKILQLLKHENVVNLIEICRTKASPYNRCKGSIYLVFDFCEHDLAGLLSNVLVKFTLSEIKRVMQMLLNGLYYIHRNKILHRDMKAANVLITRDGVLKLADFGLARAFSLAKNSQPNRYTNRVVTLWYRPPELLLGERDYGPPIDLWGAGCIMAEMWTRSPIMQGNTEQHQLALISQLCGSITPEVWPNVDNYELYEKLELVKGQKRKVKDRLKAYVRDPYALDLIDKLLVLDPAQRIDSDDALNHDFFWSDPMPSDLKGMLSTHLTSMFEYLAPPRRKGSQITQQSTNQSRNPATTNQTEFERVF
Summary of the method: as §1

| Enzyme degradation CDK2 (% remaining) @ 0.1 μM [1] | Enzyme degradation CDK2 (% remaining) @ 1 μM [1] | Enzyme degradation CDK2 (% remaining) @ 10 μM [1] | Enzyme degradation CDK9 (% remaining) @ 0.1 μM [2] | Enzyme degradation CDK9 (% remaining) @ 1 μM [2] | Enzyme degradation CDK9 (% remaining) @ 10 μM [2] | SMILES |
| --- | --- | --- | --- | --- | --- | --- |
| 100% | 50% | 40% | 100% | 0% | 0% | Cc1cccc(C(=O)N[C@H]2C[C@@H](n3cnc4c(NCc5ccc(OCCCN6CCN(C(=O)COc7ccc8c(c7)C(=O)N([C@H]7CCC(=O)NC7=O)C8=O)CC6)cc5)ncnc43)C2)n1 [Compound 112, N-((1s,3s)-3-(6-((4-(3-(4-(2-((2-(2,6-dioxopiperidin-3-yl)-1,3-dioxoisoindolin-5-yl)oxy)acetyl)piperazin-1-yl)propoxy)benzyl)amino)-9H-purin-9-yl)cyclobutyl)-6-methylpicolinamide] |
| 0/0/0% | 0/0/0% | 0/0/0% | 30% | 0% | 0% | O=C1CC[C@@H](c2cccc(OCC(=O)N3CCC(OCCN4CCN(c5ccc(Nc6ncnc7c6ncn7C6CC(NC(=O)Cc7ccccc7)C6)cc5)CC4)CC3)c2)C(=O)N1 (stereo partly drawn) [Compound 251, N-((1s,3s)-3-(6-((4-(4-(2-((1-(2-(3-(2,6-dioxopiperidin-3-yl)phenoxy)acetyl)piperidin-4-yl)oxy)ethyl)piperazin-1-yl)phenyl)amino)-9H-purin-9-yl)cyclobutyl)-2-phenylacetamide] |
| 50% | 60% | 70% | 0% | 0% | 10% | O=C1CC[C@H](N2C(=O)c3cc(F)c(N4CCC(C(=O)N5CCC(CN6CCN(c7ccc(Nc8ncnc9c8ncn9C8CC(NC(=O)Cc9ccccc9)C8)cc7)CC6)CC5)CC4)cc3C2=O)C(=O)N1 (stereo partly drawn) [Compound 456, N-((1s,3s)-3-(6-((4-(4-((1-(1-(2-(2,6-dioxopiperidin-3-yl)-6-fluoro-1,3-dioxoisoindolin-5-yl)piperidin-4-carbonyl)piperidin-4-yl)methyl)piperazin-1-yl)phenyl)amino)-9H-purin-9-yl)cyclobutyl)-2-phenylacetamide] |
| 70% | 70% | 50% | 20% | 20% | 10% | O=C1CC[C@H](N2C(=O)C=C(Nc3cccc(CC(=O)N4CCC5(CC4)CC(N4CCN(c6ccc(Nc7ncnc8c7ncn8[C@H]7C[C@@H](NC(=O)Cc8ccccc8)C7)cc6)CC4)C5)c3)C2=O)C(=O)N1 [Compound 192, N-((1s,3s)-3-(6-((4-(4-(7-(2-(3-((1-(2,6-dioxopiperidin-3-yl)-2,5-dioxo-2,5-dihydro-1H-pyrrol-3-yl)amino)phenyl)acetyl)-7-azaspiro[3.5]nonan-2-yl)piperazin-1-yl)phenyl)amino)-9H-purin-9-yl)cyclobutyl)-2-phenylacetamide] |
| 50% | 50% | 60% | 10% | 0% | 0% | O=C1CC[C@H](N2C(=O)c3ccc(N4CC(C(=O)N5CCC(CN6CCN(c7ccc(Nc8ncnc9c8ncn9C8CC(NC(=O)Cc9ccccc9)C8)cc7)CC6)CC5)C4)cc3C2=O)C(=O)N1 (stereo partly drawn) [Compound 329, N-((1s,3s)-3-(6-((4-(4-((1-(1-(2-(2,6-dioxopiperidin-3-yl)-1,3-dioxoisoindolin-5-yl)azetidin-3-carbonyl)piperidin-4-yl)methyl)piperazin-1-yl)phenyl)amino)-9H-purin-9-yl)cyclobutyl)-2-phenylacetamide] |
| 30% | 20% | 20% | 0/0/0% | 0/0/0% | 0/0/0% | Cc1cccc(C(=O)N[C@H]2C[C@@H](n3cnc4c(Nc5ccc(N6CCN(CC7CCN(C(=O)C8CN(c9ccc%10c(c9)C(=O)N([C@H]9CCC(=O)NC9=O)C%10=O)C8)CC7)CC6)cc5)ncnc43)C2)n1 [Compound 401, N-((1s,3s)-3-(6-((4-(4-((1-(1-(2-(2,6-dioxopiperidin-3-yl)-1,3-dioxoisoindolin-5-yl)azetidin-3-carbonyl)piperidin-4-yl)methyl)piperazin-1-yl)phenyl)amino)-9H-purin-9-yl)cyclobutyl)-6-methylpicolinamide] |
| 30/30/30% | 30/30/30% | 30/30/30% | 0/0/0% | 0/0/0% | 0/0/0% | O=C1CCC(N2C(=O)c3ccc(N4CCC(C(=O)N5CCC(CN6CCN(c7ccc(Nc8ncnc9c8ncn9[C@H]8C[C@@H](NC(=O)c9cccc(C(F)(F)F)n9)C8)cc7)CC6)CC5)CC4)cc3C2=O)C(=O)N1 (stereo partly drawn) [Compound 470, N-((1s,3s)-3-(6-((4-(4-((1-(1-(2-(2,6-dioxopiperidin-3-yl)-1,3-dioxoisoindolin-5-yl)piperidin-4-carbonyl)piperidin-4-yl)methyl)piperazin-1-yl)phenyl)amino)-9H-purin-9-yl)cyclobutyl)-6-(trifluoromethyl)picolinamide] |
| 70% | 40% | 40% | 10/10/10% | 10/10/10% | 10/10/10% | O=C1CC[C@H](N2C(=O)c3ccc(N4CCC(C(=O)N5CCC6(CC5)CC(N5CCN(c7ccc(Nc8ncnc9c8ncn9C8CC(NC(=O)Cc9ccccc9)C8)cc7)CC5)C6)CC4)cc3C2=O)C(=O)N1 (stereo partly drawn) [Compound 353, N-((1s,3s)-3-(6-((4-(4-(7-(1-(2-(2,6-dioxopiperidin-3-yl)-1,3-dioxoisoindolin-5-yl)piperidin-4-carbonyl)-7-azaspiro[3.5]nonan-2-yl)piperazin-1-yl)phenyl)amino)-9H-purin-9-yl)cyclobutyl)-2-phenylacetamide] |
| 10/10/10% | 10/10/10% | 10/10/10% | 10% | 0% | 0% | O=C1CC[C@H](N2C(=O)c3ccc(N4CCC(CN5CCC(c6ccc(Nc7ncnc8c7ncn8[C@H]7C[C@@H](NC(=O)Cc8ccccc8)C7)cc6)CC5)CC4)cc3C2=O)C(=O)N1 [Compound 292, N-((1s,3s)-3-(6-((4-(1-((1-(2-(2,6-dioxopiperidin-3-yl)-1,3-dioxoisoindolin-5-yl)piperidin-4-yl)methyl)piperidin-4-yl)phenyl)amino)-9H-purin-9-yl)cyclobutyl)-2-phenylacetamide] |
| 30% | 30% | 50% | 30% | 20% | 20% | O=C1CCC(N2C(=O)c3ccc(N4CC(C(=O)N5CCN(C6CN(c7ccc(Nc8ncnc9c8ncn9[C@H]8C[C@@H](NC(=O)Cc9ccccc9)C8)cc7)C6)CC5)C4)cc3C2=O)C(=O)N1 (stereo partly drawn) [Compound 374, N-((1s,3s)-3-(6-((4-(3-(4-(1-(2-(2,6-dioxopiperidin-3-yl)-1,3-dioxoisoindolin-5-yl)azetidin-3-carbonyl)piperazin-1-yl)azetidin-1-yl)phenyl)amino)-9H-purin-9-yl)cyclobutyl)-2-phenylacetamide] |
| 40% | 20% | 10% | 0/0/0% | 0/0/0% | 0/0/0% | Cc1cccc(C(=O)N[C@H]2C[C@@H](n3cnc4c(NCCC5CCN(CC6CCN(C(=O)COc7ccc8c(c7)C(=O)N([C@H]7CCC(=O)NC7=O)C8=O)CC6)CC5)ncnc43)C2)n1 [Compound 124, N-((1s,3s)-3-(6-((2-(1-((1-(2-((2-(2,6-dioxopiperidin-3-yl)-1,3-dioxoisoindolin-5-yl)oxy)acetyl)piperidin-4-yl)methyl)piperidin-4-yl)ethyl)amino)-9H-purin-9-yl)cyclobutyl)-6-methylpicolinamide] |
